Data from patent US9242996B2 (Novartis AG, priority 2013, dated 2016).

Assays:
Format in all cases: biochemical
activated ERK2 [1] = target: T1, activated ERK2 (Homo sapiens (Human), UniProt P28482); test: Activated ERK2 kinase assay, ERK2 New conditions (AlphaScreen, ERKtide phosphorylation); settings: 0.25 nM ERK2, 200 nM ERKtide peptide, 35 μM ATP, 30 min preincubation
Procedure, shortened: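 Read-out is AlphaScreen with anti-phospho-EGFR (Thr669) antibody after EDTA quench and overnight dark incubation. Reaction: 0.25 nM ERK2, 30 min compound preincubation, then 200 nM ERKtide plus 35 µM ATP for 2–3 h at ambient temperature, pH 7.5. IC50 by four-parameter fit.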

ERK2 = ERK2 (Homo sapiens (Human), UniProt P28482); test: ERK2 Alphascreen
Chain of ERK2 (P28482 whole entry, species assumed): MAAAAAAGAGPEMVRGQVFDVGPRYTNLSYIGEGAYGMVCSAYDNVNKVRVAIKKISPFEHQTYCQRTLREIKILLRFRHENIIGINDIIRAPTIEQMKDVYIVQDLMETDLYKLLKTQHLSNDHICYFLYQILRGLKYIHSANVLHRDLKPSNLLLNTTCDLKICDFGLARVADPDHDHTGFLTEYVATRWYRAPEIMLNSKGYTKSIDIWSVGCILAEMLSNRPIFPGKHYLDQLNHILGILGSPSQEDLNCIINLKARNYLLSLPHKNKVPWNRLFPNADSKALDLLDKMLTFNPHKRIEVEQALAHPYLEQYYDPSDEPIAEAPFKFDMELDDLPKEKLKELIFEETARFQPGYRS

activated ERK2 [2] = target: T1, activated ERK2; test: Activated ERK2 (20 pM) Kinase Assay (AlphaScreen, ERKtide phosphorylation); settings: 0.02 nM ERK2, 400 nM ERKtide peptide, 35 μM ATP, 30 min preincubation
Procedure, shortened: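 AlphaScreen read-out (anti-phospho-EGFR Thr669 antibody, protein A acceptor/streptavidin donor beads) of ERKtide (400 nM) phosphorylation by 20 pM activated ERK2 at 35 μM ATP.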

T1 sequence (P28482 whole entry): as the sequence (P28482 whole entry, species assumed) above

Compound	IC50 (activated ERK2 [1]) [nM]	IC50 (ERK2) [nM]	IC50 (activated ERK2 [2]) [nM]
Nc1ncc(C2CCOCC2)nc1-c1ccc(C(=O)N[C@H](CO)c2ccccc2)cc1 [Example 1, (S)-4-(3-amino-6-(tetrahydro-2H-pyran-4-yl)pyrazin-2-yl)-N-(2-hydroxy-1-phenylethyl)benzamide]	1.63	1.06	–
Nc1ncc(C2CCOCC2)cc1-c1ccc(C(=O)NCc2ccccc2)cc1 [Example 66, 4-(2-amino-5-(tetrahydro-2H-pyran-4-yl)pyridin-3-yl)-N-benzylbenzamide]	–	55.3	41.8
CN(Cc1ccccc1)C(=O)c1ccc(-c2nc(C3CCOCC3)cnc2N)cc1F [Example 52, 4-(3-amino-6-(tetrahydro-2H-pyran-4-yl)pyrazin-2-yl)-N-benzyl-2-fluoro-N-methylbenzamide]	30.3	31.2	–
Nc1ncc(C2CCOCC2)cc1-c1ccc(C(=O)N[C@H](CO)c2ccccc2)cc1F [Example 71, (S)-4-(2-amino-5-(tetrahydro-2H-pyran-4-yl)pyridin-3-yl)-3-fluoro-N-(2-hydroxy-1-phenylethyl)benzamide]	–	17.2	8.78
CN(C)c1cccc(CNC(=O)c2ccc(-c3cc(C4CCOCC4)cnc3N)cc2)c1 [Example 67, 4-(2-amino-5-(tetrahydro-2H-pyran-4-yl)pyridin-3-yl)-N-(3-(dimethylamino)benzyl)benzamide]	–	85.5	67.7
Cc1cc(-c2cc(C3CCOCC3)cnc2N)ccc1C(=O)N[C@H](CO)c1ccccc1 [Example 65, (S)-4-(2-amino-5-(tetrahydro-2H-pyran-4-yl)pyridin-3-yl)-N-(2-hydroxy-1-phenylethyl)-2-methylbenzamide]	–	1.84	0.684
Nc1ncc(C2CCS(=O)(=O)CC2)cc1-c1ccc(C(=O)N[C@H](CO)c2ccccc2)cc1 [Example 77, (S)-4-(2-amino-5-(1,1-dioxidotetrahydro-2H-thiopyran-4-yl)pyridin-3-yl)-N-(2-hydroxy-1-phenylethyl)benzamide]	–	97.6	50.8
Nc1ncc(C2CCOCC2)cc1-c1ccc(C(=O)N[C@H](CO)c2ccccc2)cc1Cl [Example 68, (S)-4-(2-amino-5-(tetrahydro-2H-pyran-4-yl)pyridin-3-yl)-3-chloro-N-(2-hydroxy-1-phenylethyl)benzamide]	314	214	–
Nc1ncc(C2CCOCC2)cc1-c1ccc(C(=O)NCc2cnccn2)c(F)c1 [Example 75, 4-(2-amino-5-(tetrahydro-2H-pyran-4-yl)pyridin-3-yl)-2-fluoro-N-(pyrazin-2-ylmethyl)benzamide]	1220	1160	–
C[C@@H](NC(=O)c1ccc(-c2cc(C3CCOCC3)cnc2N)cc1)c1ccccc1 [Example 69, (R)-4-(2-amino-5-(tetrahydro-2H-pyran-4-yl)pyridin-3-yl)-N-(1-phenylethyl)benzamide]	–	16	10

Other lines, results leading:

IC50 (activated ERK2 [1]) [nM]	IC50 (ERK2) [nM]	IC50 (activated ERK2 [2]) [nM]	Compound
233	110	–	C[C@@H]1CN(c2cnc(N)c(-c3ccc(C(=O)N[C@H](CO)c4ccccc4)cc3)c2)C[C@H](C)O1 [Example 97, 4-(2-amino-5-((2S,6R)-2,6-dimethylmorpholino)pyridin-3-yl)-N-((S)-2-hydroxy-1-phenylethyl)benzamide]
34.6	33.8	–	Nc1ncc(C2CCOCC2)nc1-c1ccc(C(=O)NC[C@@H](O)c2ccccc2)c(F)c1 [Example 333, (S)-4-(3-amino-6-(tetrahydro-2H-pyran-4-yl)pyrazin-2-yl)-2-fluoro-N-(2-hydroxy-2-phenylethyl) benzamide]
–	0.544	0.593	(S)-4-(3-amino-6- (tetrahydro-2H- pyran-4- yl)pyrazin-2-yl)-2- fluoro-N-(2- hydroxy-1- phenylethyl) benzamide [Example 325]
0.752	0.574	–	Cc1cnccc1-c1cnc(N)c(-c2ccc(C(=O)N[C@H](CO)c3ccccc3)c(F)c2)c1 [Example 83, (S)-4-(6-amino-3′-methyl-3,4′-bipyridin-5-yl)-2-fluoro-N-(2-hydroxy-1-phenylethyl)benzamide]
–	0.914	0.879	Nc1ncc(C2CCOCC2)cc1-c1ccc(C(=O)N[C@H](CO)c2ccccc2)c(F)c1 [Example 94, (S)-4-(2-amino-5-(tetrahydro-2H-pyran-4-yl)pyridin-3-yl)-2-fluoro-N-(2-hydroxy-1-phenylethyl)benzamide]
–	0.584	0.51	Nc1ncc(-c2ccncc2)cc1-c1ccc(C(=O)N[C@H](CO)c2ccccc2)cc1 [Example 80, (S)-4-(6-amino-[3,4′-bipyridin]-5-yl)-N-(2-hydroxy-1-phenylethyl)benzamide]
25.2	19.4	–	Cc1cccc(CNC(=O)c2ccc(-c3nc(C4CCOCC4)cnc3N)cc2F)n1 [Example 334, 4-(3-amino-6-(tetrahydro-2H-pyran-4-yl)pyrazin-2-yl)-2-fluoro-N-((6-methylpyridin-2-yl)methyl) benzamide]
–	26.3	15.8	COC(=O)N1CCC(c2cnc(N)c(-c3ccc(C(=O)N[C@H](CO)c4ccccc4)cc3)c2)CC1 [Example 98, (S)-methyl 4-(6-amino-5-(4-((2-hydroxy-1-phenylethyl)carbamoyl)phenyl)pyridin-3-yl)piperidine-1-carboxylate]
–	559	284	Nc1ncc(C2CCOCC2)cc1-c1ccc(C(=O)NCC2CC2)cc1 [Example 91, 4-(2-amino-5-(tetrahydro-2H-pyran-4-yl)pyridin-3-yl)-N-(cyclopropylmethyl)benzamide]
6.83	6.17	–	Nc1ncc(C2CCOCC2)nc1-c1ccc(C(=O)NCc2ccccc2)c(F)c1 [Example 324, 4-(3-amino-6-(tetrahydro-2H-pyran-4-yl)pyrazin-2-yl)-N-benzyl-2-fluorobenzamide]
–	0.265	0.364	Cc1cnccc1-c1cnc(N)c(-c2ccc(C(=O)N[C@H](CO)c3ccccc3)c(F)c2)n1 [Example 143, (S)-4-(3-amino-6-(3-methylpyridin-4-yl)pyrazin-2-yl)-2-fluoro-N-(2-hydroxy-1-phenylethyl)benzamide]
–	49	33	Nc1ncc(C2CCOCC2)cc1-c1ncc(C(=O)N[C@H](CO)c2ccccc2)cn1 [Example 90, (S)-2-(2-amino-5-(tetrahydro-2H-pyran-4-yl)pyridin-3-yl)-N-(2-hydroxy-1-phenylethyl)pyrimidine-5-carboxamide]
–	311	381	Nc1ncc(C2CCOCC2)cc1-c1ccc(C(=O)NCc2ccnnc2)c(F)c1 [Example 318, 4-(2-amino-5-(tetrahydro-2H-pyran-4-yl)pyridin-3-yl)-2-fluoro-N-(pyridazin-4-ylmethyl) benzamide]
